The values below come from US20100093670A1, “Compounds for the treatment of angiogenesis” (priority 2006, published 2010).

The structures appear in SMILES notation. Entries after “also recorded” stand apart in the source; their conditions may differ. Where only a bound is given, the exact number is not on record here.

Common to all, as to type: cell-based, human
Assay [1] relates to HUVEC cells. The assay is described as follows: HUVEC cell morphology (shrinkage), time lapse imaging. The procedure: HUVEC cells (ATCC, VA) (passage number 4) were cultured in EGM2 medium (Cambrex, Mass.) on 24-well plates and time lapse imaging was performed in a cell culture system mounted on an inverted microscope supplied with 5% CO2. The temperature was kept at 35° C. Images were taken every 60 sec using 20× objective (FIGS. 1-3) or every 30 min using 2× objective (FIG. 4) for up to 90 hr. FIGS. 1-3 show results from three time points of treatment: 0, 50, 100 min. […] Most shrunken cells were at cell cycle interphase but not mitotic stage, and still moving on the culture surface, as observed in time-lapse movies (data not shown). The shrinking effect caused by Compound 249 (and CA4) is not identical to the apoptotic effect in mitotic cells after microtubule depolymerization.

Assay [2] concerns HUVEC cells. The assay is described as follows: HUVEC migration, wound healing assay with time-lapse imaging. The following applies: for inhibition of HUVEC migration to the blank area: 24, 48 and 72 hr after treatment, compared to DMSO. An excerpt:
Using the above described time-lapse culture system, a wound healing assay was used to analyze the effect of Compound 249 and CA4 on HUVEC cells migration. Confluent HUVEC cultures were scraped similarly to make a blank area. Migration of remaining cells under different treatment was imaged at the same time to generate time-lapse image sequences. Time-lapse movies were further analyzed to calculate the number of cells that migrated to the blank area. In FIG. 4, the gray lines show the front line of cells after scraping and the red lines show the front lines of cells after migration at 24, 48 and 72 hr after treatment.

Assay [3] relates to VE-cadherin junctions of HUVEC cells. The assay is described as follows: VE-cadherin junctions of HUVEC cells, immunostaining. To be noted: 24 hrs. The procedure: It was thought that these phenotypic changes might be associated with alterations of endothelial cell junctions. To determine if Compound 249 induced disengagement of HUVEC cell junctions, VE-cadherin junctions of HUVEC cells were examined. HUVEC cells were treated with DMSO or Compound 249 (0.1, 1, or 10 nM) for 24 hrs and fixed for immunostaining. DMSO concentration was 1:100 for all treatment. To boost the immunofluorescence signal, cells were stained with a mixture of two polyclonal anti-human VE-cadherin Abs (1:1 mixed, obtained from Amersham Biosciences, N.J., and Santa Cruz Biotechnology, Calif.) followed by staining with a mixture of fluorescent secondary antibodies. […] Non-DMSO treated cells gave a similar result to those with DMSO treatment (data not shown). With 1 nM Compound 249 treatment, VE-cadherin staining was reduced (red arrow in Compound 249 1 nM) compared to that in DMSO or Compound 249 0.1 nM treatment. […] In addition, the potent effect of Compound 249 on microtubule cytoskeletons can also contribute strongly to the cell-cell junction disruption.

The mark [4] stands for this setting: 1 nM, compared to DMSO treatment.

Take `COc1ccc(/C=C\c2cc(OC)c(OC)c(OC)c2)cc1O` [CA4, Combretastatin A4, reference compound]: the “HUVEC cell shrinkage / morphological change” value with HUVEC cells [1] (setting [4]) is recorded as “did not cause obvious morphological changes”; with HUVEC cells [1] (10 nM) it was “caused a similar change on HUVEC cells”. Also, the “absolute migrated cell numbers (quantitative analysis, FIG. 5)” value (“absolute migrated cell numbers” for short) in the assay with HUVEC cells [2] (1 nM) was “much less of an effect on HUVEC migration”; with HUVEC cells [2] (5 nM), “similar”. For the same compound, the “inhibition of HUVEC migration to the blank area” value (shortened to “inhibition … to the blank area”) was “did not block the migration event” with HUVEC cells [2] (1 nM) and “significantly blocked migration” with HUVEC cells [2] (5 nM).
`COc1ccc(-c2cnoc2-c2cc(OC)c(OC)c(OC)c2)cc1N` [Compound 249, 2-methoxy-5-(5-(3,4,5-trimethoxyphenyl)isoxazol-4-yl)aniline]: in the assay with HUVEC cells [1] (1 nM), the “time of treatment within which HUVEC cell shrinkage was caused” value was no more than 50 min and the “time of treatment within which HUVEC cell shrinkage was induced” value was no more than 1 h. In addition, the “HUVEC cell shrinkage / morphological change” value in the assay with HUVEC cells [1] (setting [4]) is recorded as “Induces HUVEC Cell Shrinkage; also recorded: caused HUVEC cell shrinkage; also recorded: induced shrinkage of HUVEC cells”. Also, in the assay with HUVEC cells [1] (comparison Compound 249 vs CA4), the “effect on HUVEC cell morphology (shrinkage) compared with CA4” value was “stronger effect on both shrinkage and migration than CA4; also recorded: more potent effect on HUVEC cell morphology than CA4”. The “inhibitory effect on HUVEC migration in vitro (overall)” value in the assay with HUVEC cells [2] was “potent inhibitory effect”. Moreover, in the assay on HUVEC cells [2] (1 nM), the “absolute migrated cell numbers” value was “similar”; the “time after treatment at which the difference in migration inhibition between Compound 249 and CA4 was noticeable (FIG. 6)” value is no more than 4 h; the “inhibition … to the blank area” value was “migration inhibition; also recorded: Inhibits HUVEC Migration; also recorded: significantly blocked migration; also recorded: inhibited HUVEC cell migration”. In addition, in the assay with HUVEC cells [2] (5 nM), the “absolute migrated cell numbers” value is “similar” and the “inhibition … to the blank area” value was “significantly blocked migration”. Also, the “inhibition of HUVEC migration compared with CA4” value in the assay with HUVEC cells [2] (comparison Compound 249 vs CA4) is “stronger effect on both shrinkage and migration than CA4”. Moreover, the “disengagement of VE-cadherin junctions” value in assay [3] (1 nM) is recorded as “some of the VE-cadherin junctions were disengaged”. The “VE-cadherin staining at cell-cell junctions” value in assay [3] (1 nM, compared to DMSO or 0.1 nM) is reported as “reduced”. Moreover, in assay [3] (10 nM), the “VE-cadherin staining at cell-cell junctions” value is “significantly abolished VE-cadherin staining” and the “disengagement of cell junctions” value is “most of the cell junctions were disengaged”.
